Assay results: patent US8980829B2, “Aryl glycoside compound, preparation method and use thereof” (Shanghai Yingli Science and Technology Co., Ltd, priority 2011, dated 2015)

Columns and labels:
[1] = molecular target: human SGLT2 (Homo sapiens (Human), UniProt P31639); assay: Uptake assay of [14C]-AMG in Flp-In CHO cells stably expressing human SGLT2; type: cell-based; conditions: for IC50: [14C]-AMG uptake, Flp-In CHO cells expressing human SGLT2, 1 hour at 37° C., n = 1-4; for Selectivity (SGLT1/SGLT2): ratio SGLT1 IC50 / SGLT2 IC50;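 for all read-outs here: uptake in Na+ containing KRH buffer with compounds added in 1% DMSO, radioactivity of lysed cells read by scintillation counting, SGLT1 tested the same way in matching Flp-In CHO cells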
Sequence of human SGLT2 (P31639 whole entry): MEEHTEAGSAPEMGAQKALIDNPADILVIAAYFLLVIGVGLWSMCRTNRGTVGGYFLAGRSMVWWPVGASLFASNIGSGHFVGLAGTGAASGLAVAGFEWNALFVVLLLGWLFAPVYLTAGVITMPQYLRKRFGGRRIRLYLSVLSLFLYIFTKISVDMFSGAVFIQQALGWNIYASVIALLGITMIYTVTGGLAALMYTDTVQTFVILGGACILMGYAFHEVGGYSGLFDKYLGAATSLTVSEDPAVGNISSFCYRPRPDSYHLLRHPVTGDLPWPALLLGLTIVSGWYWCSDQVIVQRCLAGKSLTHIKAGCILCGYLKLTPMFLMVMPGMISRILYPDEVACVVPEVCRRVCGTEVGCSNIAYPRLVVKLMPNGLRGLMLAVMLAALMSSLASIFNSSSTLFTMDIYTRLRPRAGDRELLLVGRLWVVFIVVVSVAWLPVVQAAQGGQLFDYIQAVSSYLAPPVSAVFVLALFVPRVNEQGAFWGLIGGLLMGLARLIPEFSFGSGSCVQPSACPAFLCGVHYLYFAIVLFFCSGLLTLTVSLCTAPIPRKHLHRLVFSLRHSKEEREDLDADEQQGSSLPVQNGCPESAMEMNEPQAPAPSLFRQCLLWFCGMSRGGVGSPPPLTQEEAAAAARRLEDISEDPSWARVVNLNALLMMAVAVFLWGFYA

[2] = molecular target: human SGLT1 (Homo sapiens (Human), UniProt P13866); assay: Uptake assay of [14C]-AMG in Flp-In CHO cells stably expressing human SGLT1; type: cell-based; conditions: [14C]-AMG uptake, Flp-In CHO cells expressing human SGLT1, 1 hour at 37° C., n = 1-4;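 note: uptake run in sodium-containing KRH buffer with compounds added in DMSO (1% final), cell radioactivity read by scintillation counting after lysis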
Sequence of human SGLT1 (P13866 whole entry): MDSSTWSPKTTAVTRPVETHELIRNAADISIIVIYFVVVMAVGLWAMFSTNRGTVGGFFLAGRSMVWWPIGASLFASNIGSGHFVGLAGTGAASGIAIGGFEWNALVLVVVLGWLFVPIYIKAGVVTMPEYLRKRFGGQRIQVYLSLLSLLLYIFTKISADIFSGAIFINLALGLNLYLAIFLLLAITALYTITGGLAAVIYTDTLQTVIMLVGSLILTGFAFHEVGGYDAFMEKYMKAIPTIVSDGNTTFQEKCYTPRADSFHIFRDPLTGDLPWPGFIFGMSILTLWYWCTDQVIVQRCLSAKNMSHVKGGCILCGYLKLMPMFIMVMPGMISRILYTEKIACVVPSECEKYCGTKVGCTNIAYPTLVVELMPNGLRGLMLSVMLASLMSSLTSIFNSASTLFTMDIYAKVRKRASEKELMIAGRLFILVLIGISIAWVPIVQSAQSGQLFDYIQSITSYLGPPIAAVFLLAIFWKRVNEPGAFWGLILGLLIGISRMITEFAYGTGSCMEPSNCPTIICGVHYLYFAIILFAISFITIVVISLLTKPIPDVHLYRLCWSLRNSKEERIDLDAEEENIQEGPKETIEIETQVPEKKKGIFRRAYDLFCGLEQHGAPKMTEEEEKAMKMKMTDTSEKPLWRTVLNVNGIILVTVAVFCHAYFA

[3] = system: C57 mice; assay: Urinary glucose excretion test; type: in vivo; conditions: adult C57 mice, 10 mg/kg, 24-hours urine collection, average of 6 mice
Method: Urinary Glucose Excretion Test
Adult C57 mice administered the test compound (10 mg/kg) were placed in metabolism cages for 24-hours urine collection, and measure the total volume of urine. When the urine samples had been collected, they were immediately frozen in a −20° C. refrigerator, followed by detecting the glucose concentration in urine. Finally, the total glucose in animal urine was calculated according to the total urine volume. It was then converted into urinary glucose excretion (mg) per 200 g of body weight within 24 hours according to the weight of mice.

With `OC[C@H]1O[C@@H](c2ccc(Cl)c(Cc3ccc(OCCC4(F)COC4)cc3)c2)[C@H](O)[C@@H](O)[C@@H]1O` [Compound 9] the IC50 [1] was 7.5 nM, the “Selectivity (SGLT1/SGLT2)” value [1] was 159 and the IC50 [2] was 1190 nM. The “Urine Glucose Excretion (mg/200 g BW/24 h)” value (shortened to “Urine Glucose Excretion”) [3] was 1079 mg/200 g BW/24 h.

For `OC[C@H]1O[C@@H](c2ccc(Cl)c(Cc3ccc(OCC4(F)COC4)cc3)c2)[C@H](O)[C@@H](O)[C@@H]1O` [Compound 12], the IC50 [1] was 6.5 nM, the “Selectivity (SGLT1/SGLT2)” value [1] was 320 and the IC50 [2] was 2080 nM. For the same compound, the “Urine Glucose Excretion” value [3] was 1323 mg/200 g BW/24 h.

With `OC[C@H]1O[C@@H](c2ccc(Cl)c(Cc3ccc(OCC4(CF)COC4)cc3)c2)[C@H](O)[C@@H](O)[C@@H]1O` [Compound 20] the IC50 [1] was 3.7 nM, the “Selectivity (SGLT1/SGLT2)” value [1] was 690 and the IC50 [2] was 2550 nM. The “Urine Glucose Excretion” value [3] was 751 mg/200 g BW/24 h.

For `CC(=O)N1CC(COc2ccc(Cc3cc([C@@H]4O[C@H](CO)[C@@H](O)[C@H](O)[C@H]4O)ccc3Cl)cc2)C1` [Compound 17], the IC50 [1] was 6.4 nM, the “Selectivity (SGLT1/SGLT2)” value [1] was 73 and the IC50 [2] was 469 nM. The “Urine Glucose Excretion” value [3] was 180 mg/200 g BW/24 h.

`OC[C@H]1O[C@@H](c2ccc(Cl)c(Cc3ccc(OCC4CN(c5ccc(F)cc5)C4)cc3)c2)[C@H](O)[C@@H](O)[C@@H]1O` [Compound 19] was tested, and the IC50 [1] was 97.2 nM, the “Selectivity (SGLT1/SGLT2)” value [1] was 21 and the IC50 [2] was 1990 nM.

With `CCOc1ccc(Cc2cc([C@@H]3O[C@H](CO)[C@@H](O)[C@H](O)[C@H]3O)c(OCCCC3(F)COC3)cc2Cl)cc1` [Compound 25] the IC50 [1] was 12.3 nM, the “Selectivity (SGLT1/SGLT2)” value [1] was 1559 and the IC50 [2] was 18800 nM.

In the case of `CC1(COc2ccc(Cc3cc([C@@H]4O[C@H](CO)[C@@H](O)[C@H](O)[C@H]4O)ccc3Cl)cc2)COC1` [Compound 5], the IC50 [1] is reported as 8.3 nM, the “Selectivity (SGLT1/SGLT2)” value [1] is reported as 95 and the IC50 [2] is reported as 792 nM. The “Urine Glucose Excretion” value [3] was 1050 mg/200 g BW/24 h.

With `OC[C@H]1O[C@@H](c2ccc(Cl)c(Cc3ccc(OCC4CCO4)cc3)c2)[C@H](O)[C@@H](O)[C@@H]1O` (single isomer, unassigned) [Compound 3] the IC50 [1] was 11.4 nM, the “Selectivity (SGLT1/SGLT2)” value [1] was 201 and the IC50 [2] was 2290 nM.

With `CCOc1ccc(Cc2cc([C@@H]3O[C@H](CO)[C@@H](O)[C@H](O)[C@H]3O)c(OCC3(F)COC3)cc2Cl)cc1` [Compound 24] the IC50 [1] was 12 nM, the “Selectivity (SGLT1/SGLT2)” value [1] was 1424 and the IC50 [2] was 17100 nM.

With `OC[C@H]1O[C@@H](c2ccc(Cl)c(Cc3ccc(OCC4CNC4)cc3)c2)[C@H](O)[C@@H](O)[C@@H]1O` [Compound 14] the IC50 [1] was 8.4 nM, the “Selectivity (SGLT1/SGLT2)” value [1] was 93 and the IC50 [2] was 785 nM.

In the case of `OC[C@H]1O[C@@H](c2ccc(Cl)c(Cc3ccc(OCC4CCO4)cc3)c2)[C@H](O)[C@@H](O)[C@@H]1O` (single isomer, unassigned) [Compound 2], the IC50 [1] is reported as 8.7 nM, the “Selectivity (SGLT1/SGLT2)” value [1] is reported as 188 and the IC50 [2] is reported as 1640 nM.

For `OC[C@H]1O[C@@H](c2ccc(Cl)c(Cc3ccc(OCCCC4COC4)cc3)c2)[C@H](O)[C@@H](O)[C@@H]1O` [Compound 22], the IC50 [1] was 1.7 nM, the “Selectivity (SGLT1/SGLT2)” value [1] was 2911 and the IC50 [2] was 4950 nM.

With `CCOc1ccc(Cc2cc([C@@H]3O[C@H](CO)[C@@H](O)[C@H](O)[C@H]3O)c(OCC3CNC3)cc2Cl)cc1` [Compound 26] the IC50 [1] was 69.4 nM, the “Selectivity (SGLT1/SGLT2)” value [1] was 28 and the IC50 [2] was 1950 nM.

In the case of `OC[C@H]1O[C@@H](c2ccc(Cl)c(Cc3ccc(OCCC4COC4)cc3)c2)[C@H](O)[C@@H](O)[C@@H]1O` [Compound 8], the IC50 [1] is reported as 1.7 nM, the “Selectivity (SGLT1/SGLT2)” value [1] is reported as 547 and the IC50 [2] is reported as 930 nM.

`OC[C@H]1O[C@@H](c2ccc(Cl)c(Cc3ccc(OCCC4CSC4)cc3)c2)[C@H](O)[C@@H](O)[C@@H]1O` [Compound 10] was tested, and the IC50 [1] was 7.4 nM, the “Selectivity (SGLT1/SGLT2)” value [1] was 176 and the IC50 [2] was 1300 nM. The “Urine Glucose Excretion” value [3] was 740 mg/200 g BW/24 h.

`OC[C@H]1O[C@@H](c2ccc(Cl)c(Cc3ccc(OCC4COC4)cc3)c2)[C@H](O)[C@@H](O)[C@@H]1O` [Compound 1] was tested, and the IC50 [1] was 5.6 nM, the “Selectivity (SGLT1/SGLT2)” value [1] was 471 and the IC50 [2] was 2640 nM. The “Urine Glucose Excretion” value [3] was 1333 mg/200 g BW/24 h.

For `CN1CC(COc2ccc(Cc3cc([C@@H]4O[C@H](CO)[C@@H](O)[C@H](O)[C@H]4O)ccc3Cl)cc2)C1` [Compound 15], the IC50 [1] was 23.6 nM, the “Selectivity (SGLT1/SGLT2)” value [1] was 62 and the IC50 [2] was 1460 nM.

`OC[C@H]1O[C@@H](c2ccc(Cl)c(Cc3ccc(CCC4COC4)cc3)c2)[C@H](O)[C@@H](O)[C@@H]1O` [Compound 7] was tested, and the IC50 [1] was 8.5 nM, the “Selectivity (SGLT1/SGLT2)” value [1] was 124 and the IC50 [2] was 1060 nM.

`OC[C@H]1O[C@@H](c2ccc(Cl)c(Cc3ccc(OCC4CCO4)cc3)c2)[C@H](O)[C@@H](O)[C@@H]1O` (single isomer, unassigned) [Compound 4] was tested, and the IC50 [1] was 4.9 nM, the “Selectivity (SGLT1/SGLT2)” value [1] was 295 and the IC50 [2] was 1450 nM.

`OC[C@H]1O[C@@H](c2ccc(Cl)c(Cc3ccc(OC4CCOC4)cc3)c2)[C@H](O)[C@@H](O)[C@@H]1O` (some centres unmarked) [EMPAGLIFLOZIN, reference compound] was tested, and the “Urine Glucose Excretion” value [3] was 1197 mg/200 g BW/24 h.

`[O-][S+]1CC(CCOc2ccc(Cc3cc([C@@H]4O[C@H](CO)[C@@H](O)[C@H](O)[C@H]4O)ccc3Cl)cc2)C1` (some centres unmarked) [Compound 11] was tested, and the IC50 [1] was 6.8 nM, the “Selectivity (SGLT1/SGLT2)” value [1] was 150 and the IC50 [2] was 1020 nM.

For `OC[C@H]1O[C@@H](c2ccc(Cl)c(Cc3ccc(OCC4CN(C5COC5)C4)cc3)c2)[C@H](O)[C@@H](O)[C@@H]1O` [Compound 18], the IC50 [1] was 22 nM, the “Selectivity (SGLT1/SGLT2)” value [1] was 111 and the IC50 [2] was 2450 nM.

With `OC[C@H]1O[C@@H](c2ccc(Cl)c(Cc3ccc(CC4(F)COC4)cc3)c2)[C@H](O)[C@@H](O)[C@@H]1O` [Compound 16] the IC50 [1] was 8.1 nM, the “Selectivity (SGLT1/SGLT2)” value [1] was 306 and the IC50 [2] was 2480 nM. The “Urine Glucose Excretion” value [3] was 1441 mg/200 g BW/24 h.

`OC[C@H]1O[C@@H](c2ccc(Cl)c(Cc3ccc(CC4COC4)cc3)c2)[C@H](O)[C@@H](O)[C@@H]1O` [Compound 6] was tested, and the IC50 [1] was 9.6 nM, the “Selectivity (SGLT1/SGLT2)” value [1] was 312 and the IC50 [2] was 3000 nM. The “Urine Glucose Excretion” value [3] was 735 mg/200 g BW/24 h.

For `OC[C@H]1O[C@@H](c2ccc(Cl)c(Cc3ccc(OCCCC4(F)COC4)cc3)c2)[C@H](O)[C@@H](O)[C@@H]1O` [Compound 23], the IC50 [1] was 1.1 nM, the “Selectivity (SGLT1/SGLT2)” value [1] was 1089 and the IC50 [2] was 1200 nM. For the same compound, the “Urine Glucose Excretion” value [3] was 1198 mg/200 g BW/24 h.

In the case of `CC(C)(C)OC(=O)N1CC(COc2ccc(Cc3cc([C@@H]4O[C@H](CO)[C@@H](O)[C@H](O)[C@H]4O)ccc3Cl)cc2)C1` [Compound 13], the IC50 [1] is reported as 28.7 nM, the “Selectivity (SGLT1/SGLT2)” value [1] is reported as 96 and the IC50 [2] is reported as 2760 nM.
